Reference: patent US10232043B2, “Photoactivated molecules for light-induced modulation of the activity of electrically excitable cells and methods of using the same” (UNIVERSITY OF SOUTHERN CALIFORNIA, priority 2015, dated 2019)
“Also recorded” adds a separate entry of the source.

Assays:
HEK293T cells = assay: Whole cell patch clamp, current-clamp membrane potential under light; assay type: cell-based, human
Description: Membrane potential was monitored using whole cell patch clamp in current-clamp mode. Cultured cells (INS and HEK293) were plated on a glass-bottomed culture dishes 1-3 days prior to recording. Cells were incubated in standard extracellular solution with or without 10 μM RubpyC17 compound for approximately 1.5-2 minutes, then washed and incubated with standard extracellular solution without additional supplementation, or with 2-5 mM ascorbate, 100 μM sodium ferrocyanide, or 100-200 μM potassium ferricyanide, as indicated. The chamber was transferred to the microscope stage. Extracellular solution consisted of 140 mM NaCl, 2.8 mM KCl, 10 mM HEPES, 1 mM MgCl2, 2 mM CaCl2, 10 mM glucose, pH adjusted to 7.3, and osmolarity adjusted to 300-310. Conventional whole-cell patch clamp recordings were performed with an EPC-9 amplifier and Pulse software (HEKA Electronics). Pipette electrodes of 1.8-3.5 Mohm were fire polished before use. Intracellular solution consisted of: 145 mM KCl, 10 mM NaCl, 1 mM MgCl2, 1 mM EGTA, 2 mM ATP, 0.3 mM GTP and 10 mM HEPES, pH adjusted to 7.3 and osmolarity adjusted to 290-300 mOsm. To monitor changes in membrane voltage/potential, cells were patch clamped in current-clamp mode. Access resistances were in the range of 3-8 Mohm. Using Pulse, membrane potentials were recorded before, during and after illumination by the argon ion laser at 488 nm with an irradiance value of 0.458 mE s^−1 m^−2 or by a xenon lamp source through a 470/40 nm bandpass excitation filter with an irradiance value of 0.480 mE s^−1 m^−2. […]
Initial attempts were tied to INS and HEK cells, both cells that are not excitable under normal conditions (INS cells were maintained in low glucose <3 mM to prevent action potentials). […] To monitor the plasma membrane potential, the cells were patch-clamped in whole-cell configuration in current-clamp mode and membrane voltages were recorded while illuminating the cell at 488 nm (0.46-0.48 mE s^−1 m^−2), though other wavelengths are useful, depending on the embodiment. […]

[1] = tested on: whole-mount retinas from RCS rats; assay: Whole-mount retina multi-electrode recording; assay type: cell-based, rat; details: photoreceptor-degenerate retina, 100 micromolar for 30 minutes, 480 nm
Description: FIG. 26 illustrates data from whole-mount retinas from RCS rats. […] Each bin represents the frequency of spikes for 1 second. Before Rubpy treatment (14A), illumination at 480 nm elicited minimal change in spike frequency. […] Downward arrows mark the time of 100 ms (1st) and 1 second (2nd to fourth) light stimuli
The retina will be freshly dissected from Royal College of Surgeons (RCS) rats (9 months or older to ensure total loss of photoreceptors). The whole-mount retina will then be placed onto a multi-electrode array with the ganglion cell layer side facing the electrodes and is held down on the array using a lightly weighted porous membrane. Extracellular field potentials are recorded from 15 or 75 μm diameter electrodes using an MEA1060-Up amplifier and MC Rack software (Multi-Channel Systems). The activity of the retinal in response to illumination is monitored before and after PVN incubation. The retina is continuously perfused with oxygenated (95% O2, 5% CO2), heated (32C) Ames' Medium for baseline activity. The retina is then perfused with Ames' Medium containing PVN for 30 min to 1 hr, followed by 10 min wash with regular Ames' Medium before recording in Ames' Medium with 5-10 mM ascorbate. The retina will be illuminated by white LED light through a bandpass excitation filter (460-500 nm) with durations of 100 μs, 1 ms, 10 ms, 100 ms, […] and 30 s. […]

RCS rats = assay: Pupillary light response after eye injection; assay type: in vivo, rat
Description: FIG. 28 illustrates the pupillary light response in RCS rats.
This finding was reproduced in 3 of 3 RCS rats injected with Rubpy-C17, and in 2 of 2 control (sham injection) RCS rats.

[2] = tested on: endogenous ion channels of chromaffin cells; assay: Voltage-clamp current-voltage relationship and steady-state activation; assay type: cell-based, mouse; details: before and during light illumination
Description: FIGS. 21A-21H depict data from various experiments related to characteristics of RubpyC17-loaded cells. […] Inset images shown to the right of trace confirmed proper integration of RubpyC17 in patched cells. FIGS. 21C-21E show the light-induced action potential firing in chromaffin cells was not due to biophysical changes in voltage-gated ion channels as there were no significant changes in current-voltage relationships (21C-21D) nor in steady-state activation curve (21E) in RubpyC17-loaded chromaffin cells before (open circle) or during (open circle) light illumination. […] Peak inward currents from each stimulation jump were plotted against corresponding stimulating voltages (n=6). […] Data from representative cell is shown (n=5). […] Currents resulting from capacitor-like behavior of chromaffin cell membranes during hyperpolarizing jumps to −85 mV from a resting membrane potential of −80 mV were recorded 5 min following giga-seal formation for amphoterecin B (bottom trace) or 10 min following giga-seal formation for RubpyC17 (top trace).
To examine whether light-activated RubpyC17 can directly interact and open or block endogenous ion channels, HEK293T cells were preincubated with RubpyC17, and patch-clamped in a voltage-clamp configuration. […]

CCCCCCCCCCCCCCCCCc1ccnc(-c2cc(C)ccn2)c1.F[P-](F)(F)(F)(F)F.F[P-](F)(F)(F)(F)F.[Ru+2].c1ccc(-c2ccccn2)nc1.c1ccc(-c2ccccn2)nc1 [RubpyC17, [Ru(bpy)2(bpy-C17)](PF6)2]
light-induced hyperpolarization (HEK293T cells; 100 uM ferricyanide in extracellular solution): 20.9 ± 4.9 mV | light-induced depolarization with ferrocyanide as reductant (HEK293T cells; HEK293T, 0.1 mM ferrocyanide): light-induced depolarization was also observed | light-induced depolarization (HEK293T cells; HEK293 cells, presence of ascorbate): 14.6 ± 2.4 mV | light-induced action potential firing / spike frequency ([1]; listed as Rubpy): spike frequency increased | light-induced action potential firing / spike frequency ([1]; listed as Rubpy-C17): respond to illumination by firing action potentials | pupillary light reflex in injected eye (RCS rats; RCS rat, not in non-injected eye): vigorous pupillary light reflex was observed; also recorded: pupil constricts | time of pupillary light reflex (RCS rats; injected eye): < 3 s | biophysical properties of endogenous ion channels [2]: does not alter the biophysical properties of endogenous ion channels
